Among the test systems are EKVX NSCLC; HCC-2998 colon; KM12 colon; NCI-H460 lung; OVCAR-8 ovarian; PC-3 prostate; SK-MEL-2 melanoma; SNB-19 CNS; UACC-257 melanoma; UO-31 renal.
Holding throughout (assay): DTP human tumour cell line panel, 48 h

Values joined by “and” are separate entries in the source; they are usually repeats but may differ in a detail not shown here. Equal entries are not always repeated.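 Growth conditions: 96-well plates. Treatment: test compound, 48 hours, 5 concentrations. Analysis: linear interpolation between bracketing concentrations; unreached endpoints set to highest concentration. Abbreviation: GI50, concentration required for 50% inhibition of growth. The concentration for full growth arrest is given as TGI.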

A word on the GI50: it is the concentration at which growth is held to half of that of the control. A word on the TGI: it is the concentration giving total growth inhibition.

Turning to `COc1cc2c(Oc3ccc4[nH]c(C)cc4c3F)ccnc2cc1OCC1(N)CC1`, the GI50 in the experiment with EKVX NSCLC is 2.79 µM; in the experiment on HCC-2998 colon, 2.36 µM; with KM12 colon it was 1.24 µM; with NCI-H460 lung, 0.908 µM; in the experiment on OVCAR-8 ovarian, 2.92 µM; in the experiment with PC-3 prostate it was 1.36 µM. Further, the GI50 with SK-MEL-2 melanoma is 1.68 µM; in the experiment on SNB-19 CNS, 1.64 µM; with UACC-257 melanoma it was 1.67 µM; in the experiment with UO-31 renal, 0.864 µM. The TGI in the experiment with EKVX NSCLC was > 100 µM; with HCC-2998 colon it was 11.8 µM; in the experiment on KM12 colon it was 12.5 µM; in the experiment on NCI-H460 lung it was 6.84 µM; in the experiment with OVCAR-8 ovarian, > 100 µM; with PC-3 prostate, 13.4 µM. The TGI worked out at 3.79 µM with SK-MEL-2 melanoma, 28.1 µM in the experiment on SNB-19 CNS, 3.63 µM in the experiment on UACC-257 melanoma and 3.69 µM in the experiment with UO-31 renal.

As for `c1ccc2c(c1)-c1ccccc1C2N1CC2CCC(CC2)C1`, the TGI with EKVX NSCLC is 51 µM; in the experiment on HCC-2998 colon, 31.4 µM; in the experiment with KM12 colon, 39.9 µM; in the experiment with NCI-H460 lung, 52.2 µM; in the experiment with OVCAR-8 ovarian it was > 100 µM; with PC-3 prostate, 72.1 µM. Further, the TGI in the experiment with SK-MEL-2 melanoma stood at 30.7 µM; in the experiment on SNB-19 CNS, 92.4 µM; with UACC-257 melanoma it was 47.1 µM; in the experiment with UO-31 renal, 94.6 µM.

Turning to `O=[N+]([O-])c1ccc(N=Nc2c(O)ccc3ccccc23)cc1`, the GI50 was 28 µM and > 100 µM in the experiment on EKVX NSCLC; 19.7 µM and > 100 µM in the experiment with KM12 colon; > 100 µM with OVCAR-8 ovarian. Moreover, the TGI in the experiment on EKVX NSCLC, in the experiment with HCC-2998 colon, in the experiment on KM12 colon, in the experiment with NCI-H460 lung, with OVCAR-8 ovarian and with PC-3 prostate was > 100 µM in each case. The TGI in the experiment on SK-MEL-2 melanoma, in the experiment with SNB-19 CNS, in the experiment on UACC-257 melanoma and in the experiment on UO-31 renal was > 100 µM each time.

Take `CC1(C)CC(n2cnc(-c3ccc(F)cc3)c2-c2ccnc(N)n2)CC(C)(C)N1`: the GI50 in the experiment on EKVX NSCLC was > 25 µM; in the experiment on HCC-2998 colon it was > 25 µM; in the experiment with KM12 colon, 18.1 µM; in the experiment on NCI-H460 lung it was 11.9 µM; in the experiment with OVCAR-8 ovarian, 15.6 µM; in the experiment with PC-3 prostate, > 25 µM. The GI50 with SK-MEL-2 melanoma was > 25 µM; with SNB-19 CNS, > 25 µM; in the experiment on UACC-257 melanoma it was > 25 µM; in the experiment on UO-31 renal it was 16.6 µM. The TGI in the experiment on EKVX NSCLC, in the experiment with HCC-2998 colon, with KM12 colon, in the experiment on NCI-H460 lung, in the experiment with OVCAR-8 ovarian and in the experiment with PC-3 prostate was > 25 µM each time. The TGI in the experiment with SK-MEL-2 melanoma, with SNB-19 CNS, in the experiment with UACC-257 melanoma and in the experiment with UO-31 renal was > 25 µM each time.

As to `Cc1cc(I)cc(CN(C)CCN2CCCC2)c1O`, the GI50 in the experiment on EKVX NSCLC is 41.2 µM; in the experiment with HCC-2998 colon, 16 µM; in the experiment on KM12 colon, 32.8 µM; in the experiment with NCI-H460 lung, 28.3 µM; in the experiment with OVCAR-8 ovarian, 46.7 µM; in the experiment with PC-3 prostate, 28.2 µM. Also, the GI50 is 25.6 µM with SK-MEL-2 melanoma, 34 µM in the experiment on SNB-19 CNS, 32.2 µM with UACC-257 melanoma and 28.7 µM in the experiment with UO-31 renal. Further, the TGI in the experiment with EKVX NSCLC was > 100 µM; in the experiment on HCC-2998 colon, 35.9 µM; in the experiment with KM12 colon it was 81.3 µM; in the experiment with NCI-H460 lung, 85.4 µM; with OVCAR-8 ovarian, > 100 µM; with PC-3 prostate, > 100 µM. Also, the TGI is 63.1 µM with SK-MEL-2 melanoma, > 100 µM in the experiment with SNB-19 CNS, 51.4 µM in the experiment with UACC-257 melanoma and > 88.9 µM in the experiment with UO-31 renal.

As to `O=C1c2cc([N+](=O)[O-])ccc2-c2cccc(F)c21`, the TGI was 51.5 µM with EKVX NSCLC; > 100 µM in the experiment with HCC-2998 colon; > 100 µM in the experiment with KM12 colon; > 100 µM in the experiment on NCI-H460 lung; > 100 µM in the experiment with OVCAR-8 ovarian; > 100 µM in the experiment on PC-3 prostate. For the same compound, the TGI in the experiment with SK-MEL-2 melanoma is 55.7 µM; with SNB-19 CNS, > 100 µM; with UACC-257 melanoma, > 100 µM; with UO-31 renal, > 100 µM.

Take `C=CCC(C(=O)O)c1ccccc1` (stereo not drawn): the TGI in the experiment with EKVX NSCLC, with HCC-2998 colon, in the experiment with KM12 colon, in the experiment on NCI-H460 lung, with OVCAR-8 ovarian and with PC-3 prostate was > 100 µM in each case. For the same compound, the TGI with SK-MEL-2 melanoma, with SNB-19 CNS, in the experiment with UACC-257 melanoma and in the experiment on UO-31 renal was > 100 µM throughout.

Take `CN(C)C1CCN(C(=O)c2ccc(NC(=O)Nc3ccc(-c4nc(N5CCOCC5)nc(N5CCOCC5)n4)cc3)cc2)CC1`: the GI50 in the experiment on EKVX NSCLC was 0.0158 µM and 0.0203 µM and 0.0404 µM; with HCC-2998 colon it was 0.0118 µM and 0.024 µM and 0.0102 µM; with KM12 colon, 0.0355 µM and 0.0423 µM and 0.0437 µM; with NCI-H460 lung, 0.029 µM and 0.0334 µM and 0.0608 µM; in the experiment on OVCAR-8 ovarian it was 0.0545 µM and 0.0926 µM and 0.437 µM; in the experiment with PC-3 prostate, < 0.01 µM and 0.0108 µM and 0.0309 µM. Besides, the GI50 in the experiment on SK-MEL-2 melanoma is 0.0236 µM and 0.0243 µM and 0.0196 µM; in the experiment with SNB-19 CNS, < 0.0123 µM and 0.0131 µM and 0.0174 µM; in the experiment on UACC-257 melanoma, 0.0289 µM and 0.0633 µM and 0.0266 µM. Further, the TGI was 0.839 µM and 2.5 µM and 1.03 µM with HCC-2998 colon; 7.73 µM and 2.5 µM and 2.36 µM in the experiment with KM12 colon; 0.407 µM and 0.216 µM and 1.06 µM in the experiment on PC-3 prostate; 0.0744 µM and 0.113 µM and 0.09 µM in the experiment on SK-MEL-2 melanoma; 4.23 µM and 2.5 µM and 0.875 µM with SNB-19 CNS; 0.151 µM and 0.386 µM and 0.243 µM in the experiment with UACC-257 melanoma.

These data come from PubChem BioAssay (NCI).
